# pIC50: −log10 of the molar value. *1 amine or outer side, *2 acyl side, *3 side chain or, on linkers, in order; H or OH if unused. Where a SMILES comes first, the peptide text is derived from it. Bridges are numbered along the chain shown (N, C = ends). [ ]: non-standard residue; d: D form. Phe(3,4,5-F3) = N[C@@H](Cc1cc(F)c(F)c(F)c1)C(=O)O; Phe(3,4-F2) = N[C@@H](Cc1ccc(F)c(F)c1)C(=O)O; Pro(4R-NH2) = N[C@H]1CN[C@H](C(=O)O)C1; d(cisHyp) = O=C(O)[C@H]1C[C@@H](O)CN1; Bta = N[C@@H](Cc1csc2ccccc12)C(=O)O; NMeY = CN[C@@H](Cc1ccc(O)cc1)C(=O)O; Hyp = O=C(O)[C@@H]1C[C@@H](O)CN1; NMeF = CN[C@@H](Cc1ccccc1)C(=O)O; X1 = O=C([C@H]1COCCN1[*:1])[*:2]; NMeNle = CCCC[C@H](NC)C(=O)O; Pip = O=C(O)[C@@H]1CCCCN1; hSer = N[C@@H](CCO)C(=O)O; NMeA = CN[C@@H](C)C(=O)O; Orn = NCCC[C@H](N)C(=O)O; dNMeA = CN[C@H](C)C(=O)O; Dab = NCC[C@H](N)C(=O)O; Dap = NC[C@H](N)C(=O)O; Sar = CNCC(=O)O
# Target: T1, Human PD-L1/PD-1 (Homo sapiens, UniProt Q9NZQ7)
# T1 construct: TVMV protease cleavage site (C); made in house; host or cells: HEK293T cells
# T1 sequence (Q9NZQ7 with tags, fused parts or gaps): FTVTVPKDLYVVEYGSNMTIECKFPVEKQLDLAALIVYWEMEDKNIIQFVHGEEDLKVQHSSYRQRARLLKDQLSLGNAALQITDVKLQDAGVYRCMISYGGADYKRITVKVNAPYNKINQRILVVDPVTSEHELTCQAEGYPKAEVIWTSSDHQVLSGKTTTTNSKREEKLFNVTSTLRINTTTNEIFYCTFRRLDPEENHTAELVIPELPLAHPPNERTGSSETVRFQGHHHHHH
# Test: HTRF Human PD-L1/PD-1 binding assay (PD-1-Ig/PD-L1-His)
# Settings: PD-L1-His 10 nM, PD-1-Ig 20 nM; class symbol; read-out: HTRF Human PD-L1/PD-1 Binding Assay IC50 Range
# In short: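 HTRF read-out (665/620 nm ratio) after 30 min equilibration with Eu-cryptate anti-Ig mAb (1 nM) and APC anti-His mAb (20 nM). Peptides preincubated 15 min with PD-L1-His (10 nM), then PD-1-Ig (20 nM) added for 15 min.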
row,pIC50,SMILES
1,7.00 to 8.00,CCCC[C@H]1C(=O)N(C)[C@@H](CCCC)C(=O)N[C@@H](CCCNC(=N)N)C(=O)N[C@H](C(=O)NCC(N)=O)CSCC(=O)N[C@@H](Cc2ccc(O)cc2)C(=O)N2CCCC[C@H]2C(=O)N[C@@H](CCC(=O)O)C(=O)N2CCC[C@H]2C(=O)N[C@@H](Cc2c[nH]cn2)C(=O)N[C@@H](CCCN)C(=O)N2C[C@H](O)C[C@H]2C(=O)N[C@@H](Cc2c[nH]c3ccccc23)C(=O)N[C@@H](CO)C(=O)N[C@@H](Cc2c[nH]c3ccccc23)C(=O)N1C [Example 1538] ({CH2CO}-Y[Pip]EPH[Orn][Hyp]WSW[NMeNle][NMeNle]RCG-NH2; thioether N-14)
2,8.00 to 9.00,"CCCC[C@H]1C(=O)N2C[C@H](O)C[C@@H]2C(=O)N[C@@H](CC(=O)O)C(=O)N[C@@H](C(C)C)C(=O)N(C)[C@@H](Cc2ccccc2)C(=O)N[C@@H](CCN)C(=O)N2C[C@H](O)C[C@@H]2C(=O)N[C@@H](Cc2c[nH]c3ccccc23)C(=O)N[C@@H](Cc2ccc(O)cc2)C(=O)N[C@@H](CCCN)C(=O)N[C@H](C(=O)NCC(N)=O)CSCC(=O)N[C@@H](Cc2ccc(F)c(F)c2)C(=O)N(C)[C@@H](Cc2ccccc2)C(=O)N1C [Example 9310] ({CH2CO}-[Phe(3,4-F2)][NMeF][NMeNle][d(cisHyp)]DV[NMeF][Dab][d(cisHyp)]WY[Orn]CG-NH2; thioether N-13)"
3,8.00 to 9.00,"CCCC[C@H]1C(=O)N2CCC[C@@H]2C(=O)N[C@@H](CC(=O)O)C(=O)N[C@@H](C(C)C)C(=O)N(C)[C@@H](Cc2ccccc2)C(=O)N[C@@H](Cc2ccc(O)cc2)C(=O)N2CCOC[C@@H]2C(=O)N[C@@H](Cc2c[nH]c3ccccc23)C(=O)N[C@@H](Cc2ccc(O)cc2)C(=O)N[C@@H](CCOC)C(=O)N[C@H](C(=O)NCC(N)=O)CSCC(=O)N[C@@H](Cc2cc(F)c(F)c(F)c2)C(=O)N(C)[C@@H](Cc2ccccc2)C(=O)N1C [Example 10187] ({CH2CO}-[Phe(3,4,5-F3)][NMeF][NMeNle][dP]DV[NMeF]Y[X1]WY[hSer](Me)CG-NH2; thioether N-13)"
4,7.00 to 8.00,"CCCC[C@H]1C(=O)N2C[C@H](O)C[C@@H]2C(=O)N2C[C@H](N)C[C@H]2C(=O)N[C@@H](C(C)C)C(=O)N(C)[C@@H](Cc2ccccc2)C(=O)N[C@@H](CCC(=O)O)C(=O)N2CCOC[C@@H]2C(=O)N[C@@H](Cc2c[nH]c3ccccc23)C(=O)N[C@@H](Cc2ccc(O)cc2)C(=O)N[C@@H](CC(C)C)C(=O)N[C@H](C(=O)NCC(N)=O)CSCC(=O)N[C@@H](Cc2cc(F)c(F)c(F)c2)C(=O)N(C)[C@@H](Cc2ccccc2)C(=O)N1C [Example 3216] ({CH2CO}-[Phe(3,4,5-F3)][NMeF][NMeNle][d(cisHyp)][Pro(4R-NH2)]V[NMeF]E[X1]WYLCG-NH2; thioether N-13)"
5,8.00 to 9.00,CCCC[C@H]1C(=O)N(C)[C@@H](CCCC)C(=O)N[C@@H](CCC(=O)O)C(=O)N[C@H](C(=O)NCC(N)=O)CSCC(=O)N[C@@H](Cc2ccc(O)cc2)C(=O)N(C)[C@@H](C)C(=O)N[C@@H](CC(=O)O)C(=O)N2CCC[C@H]2C(=O)N[C@@H](CN)C(=O)N[C@@H](CCC(N)=O)C(=O)N2C[C@H](O)C[C@H]2C(=O)N[C@@H](Cc2c[nH]c3ccccc23)C(=O)N[C@@H](CCC(=O)O)C(=O)N[C@@H](Cc2c[nH]c3ccccc23)C(=O)N1C [Example 5245] ({CH2CO}-Y[NMeA]DP[Dap]Q[Hyp]WEW[NMeNle][NMeNle]ECG-NH2; thioether N-14)
6,7.00 to 8.00,"CCCC[C@H]1C(=O)N2CCC[C@@H]2C(=O)N[C@@H](CC(=O)O)C(=O)N[C@@H](C(C)C)C(=O)N(C)[C@@H](Cc2ccccc2)C(=O)N[C@@H](CCC(=O)O)C(=O)N2C[C@H](O)C[C@@H]2C(=O)N[C@@H](Cc2c[nH]c3ccccc23)C(=O)N[C@@H](Cc2ccc(O)cc2)C(=O)N[C@@H](CC(C)C)C(=O)N[C@H](C(=O)NCC(N)=O)CSCC(=O)N[C@@H](Cc2cc(F)c(F)c(F)c2)C(=O)N(C)[C@@H](Cc2ccc(O)cc2)C(=O)N1C [Example 10629] ({CH2CO}-[Phe(3,4,5-F3)][NMeY][NMeNle][dP]DV[NMeF]E[d(cisHyp)]WYLCG-NH2; thioether N-13)"
7,8.00 to 9.00,CCCC[C@H]1C(=O)N(C)[C@@H](CCCC)C(=O)N[C@@H](CC(C)C)C(=O)N[C@H](C(=O)NCC(N)=O)CSCC(=O)N[C@@H](Cc2ccc(O)cc2)C(=O)N(C)[C@@H](C)C(=O)N[C@@H](CC(N)=O)C(=O)N(C)CC(=O)N[C@@H](Cc2cnc[nH]2)C(=O)N[C@@H](CCC(=O)O)C(=O)N2C[C@H](O)C[C@H]2C(=O)N[C@@H](Cc2c[nH]c3ccccc23)C(=O)N[C@@H](CCN)C(=O)N[C@@H](Cc2csc3ccccc23)C(=O)N1C [Example 5225] ({CH2CO}-Y[NMeA]N[Sar]HE[Hyp]W[Dab][Bta][NMeNle][NMeNle]LCG-NH2; thioether N-14)
8,8.00 to 9.00,"CCCC[C@H]1C(=O)N2CCC[C@@H]2C(=O)N[C@@H](CC(=O)O)C(=O)N[C@@H](C(C)C)C(=O)N(C)[C@@H](Cc2ccccc2)C(=O)N[C@@H](Cc2ccc(O)cc2)C(=O)N2CCC[C@@H]2C(=O)N[C@@H](Cc2c[nH]c3ccccc23)C(=O)N[C@@H](Cc2ccc(O)cc2)C(=O)N[C@@H](CC(=O)O)C(=O)N[C@H](C(=O)NCC(N)=O)CSCC(=O)N[C@@H](Cc2cc(F)c(F)c(F)c2)C(=O)N(C)[C@@H](Cc2ccccc2)C(=O)N1C [Example 10099] ({CH2CO}-[Phe(3,4,5-F3)][NMeF][NMeNle][dP]DV[NMeF]Y[dP]WYDCG-NH2; thioether N-13)"
9,7.00 to 8.00,"CCCC[C@H]1C(=O)N2C[C@H](O)C[C@@H]2C(=O)N[C@@H](CC(=O)O)C(=O)N[C@@H](C(C)C)C(=O)N(C)[C@@H](Cc2ccccc2)C(=O)N[C@@H](CC(=O)O)C(=O)N2C[C@H](O)C[C@@H]2C(=O)N[C@@H](Cc2c[nH]c3ccccc23)C(=O)N[C@@H](Cc2ccc(O)cc2)C(=O)N[C@@H](CCC(=O)O)C(=O)N[C@H](C(=O)NCC(N)=O)CSCC(=O)N[C@@H](Cc2cc(F)c(F)c(F)c2)C(=O)N(C)[C@@H](Cc2ccccc2)C(=O)N1C [Example 9349] ({CH2CO}-[Phe(3,4,5-F3)][NMeF][NMeNle][d(cisHyp)]DV[NMeF]D[d(cisHyp)]WYECG-NH2; thioether N-13)"
10,8.00 to 9.00,"CC(C)C[C@@H]1NC(=O)[C@H](Cc2ccc(O)cc2)NC(=O)[C@H](Cc2c[nH]c3ccccc23)NC(=O)[C@@H](C)N(C)C(=O)[C@H](Cc2ccc(O)cc2)NC(=O)[C@H](Cc2ccccc2)N(C)C(=O)[C@H](C(C)C)NC(=O)[C@H](CC(=O)O)NC(=O)[C@@H](C)N(C)C(=O)[C@H](C)N(C)C(=O)[C@H](Cc2ccccc2)N(C)C(=O)[C@H](Cc2cc(F)c(F)c(F)c2)NC(=O)CSC[C@@H](C(=O)NCC(N)=O)NC1=O [Example 9188] ({CH2CO}-[Phe(3,4,5-F3)][NMeF][NMeA][dNMeA]DV[NMeF]Y[dNMeA]WYLCG-NH2; thioether N-13)"
11,8.00 to 9.00,"CC(C)[C@@H]1NC(=O)[C@H](CC(=O)O)NC(=O)[C@@H](C)N(C)C(=O)[C@H](C)N(C)C(=O)[C@H](Cc2ccccc2)N(C)C(=O)[C@H](Cc2cc(F)c(F)c(F)c2)NC(=O)CSC[C@@H](C(=O)NCC(N)=O)NC(=O)[C@H](CCCN)NC(=O)[C@H](Cc2ccc(O)cc2)NC(=O)[C@H](Cc2c[nH]c3ccccc23)NC(=O)[C@@H](C)N(C)C(=O)[C@H](Cc2ccc(O)cc2)NC(=O)[C@H](Cc2ccccc2)N(C)C1=O [Example 9193] ({CH2CO}-[Phe(3,4,5-F3)][NMeF][NMeA][dNMeA]DV[NMeF]Y[dNMeA]WY[Orn]CG-NH2; thioether N-13)"

# Reference: patent US10538555B2, “Macrocyclic inhibitors of the PD-1/PD-L1 and CD80(B7-1)/PD-L1 protein/protein interactions” (BRISTOL-MYERS SQUIBB COMPANY, priority 2014, dated 2020)
